Experimental data published in patent EP1135374B9, “BENZIMIDAZOLE COMPOUNDS THAT ARE VITRONECTIN RECEPTOR ANTAGONISTS” (SCHERING CORPORATION, priority 1998, dated 2000).

Tests used:
[1] = target: T1, αvβ3 receptor (purified from human placenta) (Homo sapiens, UniProt P05106+P06756); experiment: competition radioligand binding assay, 125I-echistatin to αvβ3 receptor; details: Table 16; αvβ3, inhibition of specific 125I-echistatin binding
T1 construct: αvβ3 receptor (purified from human placenta); from tissue; host or cells: human placenta
Protocol: The following assay procedure, which is a competition radioligand binding assay, was carried out to determine the activity of the foregoing compounds as αvβ3 antagonists. The competitive assay procedure described in Kumar, et. al., "Biochemical Characterization Of The Binding Of Echistatin To Integrin αvβ3 Receptor", Journal Of Pharmacology And Experimental Therapeutics, Vol. 283, No. 2, pp. 843-853 (1997) was employed. Thus, binding of ^125I-echistatin (radiolabeled by the chloramine-T method to a specific activity of 2000 Ci/mmol (Amersham, Chicago, Il.)) to αvβ3 receptor (purified from human placenta), both prepared as described in Kumar, et al., was competed by the compounds prepared in the foregoing examples. Purified αvβ3 receptor was coated onto Microlite-2 plates at a concentration of 50 ng/well. ^125I-echistatin was added to the wells to a final concentration of 0.05 nM in binding buffer (50 µl/well) in the presence of the competing test compound. The competing test compounds were employed at serially diluted concentrations ranging from 1 pM to 100 nM. After a 3 hour incubation at room temperature, the wells were washed, and radioactivity, reflecting binding by ^125 I-echistatin to αvβ3 receptors, was determined with Top Count (Packard). Each data point is an average of values from triplicate wells.
Specific binding of ^125I-echistatin was calculated as the difference between the amount of ^125I-echistatin bound in the absence (total binding) and the amount of ^125I-echistatin bound in the presence of a 200-fold molar excess of unlabeled echistatin (nonspecific binding). The efficacy of the test compounds for inhibiting specific binding of ^125I-echistatin to αvβ3 receptors was determined by plotting a graph of specific binding (y-axis) as a function of test compound concentration (x-axis). The concentration of test compound required to inhibit 50% of the specific binding (IC50) was determined from the plot. The IC50 may be directly converted mathematically to Ki, which is a measure of the receptor binding affinity of the compounds under the defined assay conditions.

[2] = target: purified αllbβ3 receptor (Homo sapiens, UniProt P05106+P08514); experiment: similar competitive binding assay with 125I-echistatin on αllbβ3 receptor, used for the specificity index; details: Table 16; specificity index IC50 αllbβ3/ IC50 αvβ3
Protocol: To measure the relative affinity of the test compounds for αvβ3 receptors versus affinity for αllbβ3 receptors, similar competitive assays were carried out using purified αllbβ3 receptor and ^125I-echistatin (iodinated using the lactoperoxidase method). The specificity index, which is a measure of the relative binding affinity for αvβ3, versus αllbβ3, may be determined by dividing the IC50 value for αllbβ3 by the IC50 value for αvβ3.

## CCCCOC(=O)N[C@@H](CNC(=O)c1ccc(CN(Cc2nc3ccccc3[nH]2)C(=O)N[C@H](C(=O)OCC)C(C)C)cc1)C(=O)O [Example 5-90]
[1]
  IC50: 2.6 nM
[2]
  Specificity αllbβ3 / αvβ3: 1697

## CCCCOC(=O)N[C@@H](CNC(=O)c1ccc(CN(Cc2nc3ccccc3[nH]2)C(=O)Nc2ccc(C(=O)OCC)cc2)cc1)C(=O)O [Example 5-91]
[1]
  IC50: 2.8 nM
[2]
  Specificity αllbβ3 / αvβ3: 1183

## Cn1c(CN(Cc2ccc(C(=O)NC[C@H](NC(=O)OCc3ccccc3)C(=O)O)cc2)C(=O)NC2CCCCC2)nc2ccccc21 [Example 5-92]
[1]
  IC50: 7.6 nM
[2]
  Specificity αllbβ3 / αvβ3: 174

## CC(C)NC(=O)N(Cc1ccc(C(=O)NC[C@H](NC(=O)OCc2ccccc2)C(=O)O)cc1)Cc1nc2ccccc2n1C [Example 5-93]
[1]
  IC50: 6.7 nM
[2]
  Specificity αllbβ3 / αvβ3: 124

## O=C(N[C@@H](CNC(=O)c1ccc(CN(Cc2nc3cc(Cl)ccc3[nH]2)C(=O)NC2CCCCC2)cc1)C(=O)O)OCc1ccccc1 [Example 5-94]
[1]
  IC50: 3.8 nM
[2]
  Specificity αllbβ3 / αvβ3: 399

## CC(C)NC(=O)N(Cc1ccc(C(=O)NC[C@H](NC(=O)OCc2ccccc2)C(=O)O)cc1)Cc1nc2cc(Cl)ccc2[nH]1 [Example 5-95]
[1]
  IC50: 1.7 nM
[2]
  Specificity αllbβ3 / αvβ3: 775

## O=C(O)CNC(=O)N(Cc1ccc(C(=O)NC[C@H](NC(=O)OCc2ccccc2)C(=O)O)cc1)Cc1nc2ccccc2[nH]1 [Example 5-96, N^3-[4-[(Benzimidazol-2-yl)methyl] [[(carboxymethyl)amino]carbonyl]aminomethylbenzoyl]-N^2-Cbz-L-2,3-diaminopropionic acid]
[1]
  IC50: 3.4 nM
[2]
  Specificity αllbβ3 / αvβ3: 528

## CCCCOC(=O)N[C@@H](CNC(=O)c1ccc(CN(Cc2nc3ccccc3[nH]2)C(=O)NCC(=O)O)cc1)C(=O)O [Example 5-97, N^3-[4-[(Benzimidazol-2-yl)methyl][[(carboxymethyl)amino]carbonyl]aminomethylbenzoyl]-N^2-(n-butoxycarbonyl)-L-2,3-diaminopropionic acid]
[1]
  IC50: 4.3 nM
[2]
  Specificity αllbβ3 / αvβ3: 2600
